Data published in paper PMC11444200, “In Vitro Evaluation of Antipseudomonal Activity and Safety Profile of Peptidomimetic Furin Inhibitors” (Biomedicines, 2024).

Experiments:
[1] = tested on: α1-acid glycoprotein (AGP); test: fluorescence quenching of α1-acid glycoprotein; assay type: binding; details: AGP 2 μM, ligand 0.25-2.5 μM, PBS pH 7.4, λex 285 nm
Experimental: Human serum albumin (HSA) (product code: A1653) and α1-acid glycoprotein (AGP) (product code: G9885) were purchased from Merck (Darmstadt, Germany) and used as received. Fluorescence emission spectra were recorded using a Hitachi F-4500 fluorometer (Tokyo, Japan), while absorption spectra were collected by employing a Hitachi U-3900 UV–Vis spectrophotometer (Tokyo, Japan). Before the evaluation of fluorescence data, the inner-filter effects of MI-1851 and MI-2415 were corrected based on the following equation [23, 24]:(1) Icor=Iobs×e^(Aex+Aem)/2 where Icor and Iobs are the corrected and observed emission intensities, respectively; and Aex and Aem are the absorbance of the MI compounds tested at the excitation and emission wavelengths used, respectively.
To examine the potential interaction of inhibitor MI-2415 with HSA, increasing levels of the ligand (final concentrations: 0, 1, 2, 3, 4, 7, and 10 μM) were added to a standard amount of the protein (2 μM) in PBS (pH 7.4), and then the emission spectra were recorded (λex = 295 nm, λem = 340 nm). Furthermore, the quenching effects of inhibitors MI-1851 and MI-2415 (both 0, 0.25, 0.5, 1, 1.5, 2, and 2.5 μM) were also tested on the emission signal of AGP (2 μM) in PBS (λex = 285 nm, λem = 337 nm).

IPEC-J2 cells = test: DCFH-DA intracellular ROS assay in IPEC-J2 cells; assay type: cell-based, porcine; details: 50 and 100 μM, 24 h
Experimental: The cell line used for the experiments was the IPEC-J2 from the jejunum of porcine. The IPEC-J2 epithelial cell line was a kind gift from Dr. Jody Gookin (Department of Clinical Sciences, College of Veterinary Medicine, North Carolina State University, Raleigh, NC, USA). The cell monolayers were maintained in 75 cm^2 cell culture flasks with filtered caps (Orange Scientific, Braine-l’Alleud, Belgium) at 37 °C in a humidified atmosphere containing 5% CO2. The culture medium contained 50% Dulbecco’s modified Eagle’s medium (DMEM) and 50% Ham’s F12 Nutrient Mixture (Merck, Darmstadt, Germany) supplemented with 1.5 mmol/L HEPES, 5% fetal bovine serum (FBS) (Biocenter, Budapest, Hungary), 1% insulin/transferrin/sodium selenite medium supplement, 5 ng/mL epidermal growth factor (EGF), and 1% penicillin/streptomycin (all purchased from Invitrogen, Thermo Fisher Scientific, Waltham, MA, USA). Cells were used between passages 40 and 55. […]
The ability of inhibitors MI-1851 and MI-2415 to induce oxidative stress (ROS) within IPEC-J2 as well as of compound MI-2415 within PHHs was investigated with 2,7-dichloro-dihydro-fluorescein diacetate (DCFH2-DA). […] A Victor X2 2030 (Perkin Elmer, Waltham, MA, USA) was used to determine the fluorescence values of the samples (excitation wavelength: 485 nm, emission wavelength: 535 nm), which are directly proportional to the ROS generation.

CYP3A4 [2] = target: T1, CYP3A4 (Homo sapiens, UniProt P08684); test: cell-based P450-Glo CYP3A4 activity assay in PHHs; assay type: in vitro ADME; parameters: human hepatic microsomes (Gibco, Biocenter, Szeged, Hungary); tissue Gibco (Biocenter, Szeged, Hungary); host or cells: human liver microsomes; details: 100 µM, 24 h
Experimental: (§1) To investigate the effects of inhibitor MI-2415 on CYP3A4 activities, a P450-Glo CYP450 assay (Promega, Madison, WI, USA) was used. […] This luminescent method involves adding a cell-permeable Luciferin-IPA at 3 µM, which was used in 300 µL phenol-red free Williams’ Medium E in each well in the CYP3A4 assay with an incubation time of 1 h. The luminescence activity of the product in the presence of the luciferin detection reagent was proportional to the CYP activity. For the microsomal CYP3A4 assay of inhibitors MI-1851 and MI-2415 at 25, 50, and 100 µM (n = 3), BioVision CYP assays (BioVision, Inc., Kampenhout, Belgium) were used according to the manufacturer’s instructions. The protein content of human hepatic microsomes (Gibco, Biocenter, Szeged, Hungary) was determined by the bicinchoninic acid protein assay kit (Pierce BCA kit, Thermo Fisher Scientific, Waltham, MA, USA) and a 100 µg/well protein was used in each study. […] A Victor X2 2030 fluorescence spectrometer (Perkin Elmer, Waltham, MA, USA) was used to detect the fluorescence intensities of the microsomal CYP3A4 function at wavelengths of λex/em = 535/587 nm and it was also applied to detect the luminescence signals of the cell-based CYP3A4 activity assay.

CYP3A4 [3] = target: T1, CYP3A4; test: microsomal CYP3A4 activity assay (human hepatic microsomes); assay type: in vitro ADME; parameters: human hepatic microsomes (Gibco, Biocenter, Szeged, Hungary); tissue Gibco (Biocenter, Szeged, Hungary); host or cells: human liver microsomes; details: for microsomal CYP3A4 function: 25, 50 and 100 µM; for inhibition at 100 µM: human, read-out: CYP3A4 inhibitory activities
Experimental: as §1

[4] = tested on: primary human hepatocytes (PHH); parameters: method as in PMID 35594709; details: PHHs; cited from earlier work
CYP3A4 [5] = target: T1, CYP3A4; parameters: method as in PMID 35594709; details: PHH, previous studies; cited from earlier work
[6] = tested on: human airway Calu-3 cells; details: cited from earlier work

T1 sequence (P08684 whole entry): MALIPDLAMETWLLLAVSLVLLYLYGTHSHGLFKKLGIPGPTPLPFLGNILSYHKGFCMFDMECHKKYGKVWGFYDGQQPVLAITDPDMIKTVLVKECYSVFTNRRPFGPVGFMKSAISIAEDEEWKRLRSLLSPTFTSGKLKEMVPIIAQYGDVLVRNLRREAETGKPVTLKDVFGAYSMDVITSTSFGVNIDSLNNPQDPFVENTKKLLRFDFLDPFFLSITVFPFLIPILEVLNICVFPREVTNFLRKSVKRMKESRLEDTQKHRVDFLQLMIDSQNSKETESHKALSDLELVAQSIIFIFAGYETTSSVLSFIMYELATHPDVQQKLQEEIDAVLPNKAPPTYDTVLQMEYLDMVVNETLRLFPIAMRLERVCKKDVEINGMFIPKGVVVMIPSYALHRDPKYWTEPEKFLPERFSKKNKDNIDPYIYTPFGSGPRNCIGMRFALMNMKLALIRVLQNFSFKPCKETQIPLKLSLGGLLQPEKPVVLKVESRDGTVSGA

Compound | effect on fluorescence signal of AGP at 337 nm [1] | intracellular ROS levels in IPEC-J2 cells (IPEC-J2 cells) | CYP3A4 activity in PHHs (CYP3A4 [2]) | concentration from which CYP3A4 inhibition is significant (CYP3A4 [3]) [µM] | microsomal CYP3A4 function (CYP3A4 [3]) | inhibition at 100 µM (CYP3A4 [3]) [%] | non-cytotoxic concentration [4] | concentration at which significant inhibition of CYP3A4 was already observed (CYP3A4 [5]) [µM] | non-cytotoxic concentration [6]
CC(C)(C)[C@H](NC(=O)[C@H](CCONC(=N)N)NC(=O)Cc1ccc(CNC(=N)N)cc1)C(=O)N[C@@H](CCONC(=N)N)C(=O)NCc1ccc2c(c1)CN=C2N [MI-2415] | did not induce relevant changes in the fluorescence signal of AGP | no significant alterations in intracellular ROS levels | significantly reduced | 50 | reduce CYP3A4 activity but only from 50 µM | 30 to 50 |  |  | 
CC(C)(C)[C@H](NC(=O)[C@H](CCONC(=N)N)NC(=O)Cc1ccc(CNC(=N)N)cc1)C(=O)N[C@@H](CCONC(=N)N)C(=O)NCc1ccc(C(=N)N)cc1 [MI-1851] | did not induce relevant changes in the fluorescence signal of AGP | no significant alterations in intracellular ROS levels |  |  | suppressed CYP3A4 function in a concentration-dependent manner | 30 to 50 | up to 100 µM | 20 | up to 50 µM
